Results as given in patent publication US5559232A, “Carboxamides” (Hoffmann-La Roche Inc., priority 1993, dated 1996).

How the values were obtained:
human thrombin = human thrombin (Homo sapiens, UniProt P00734); assay: inhibition of the amidolytic activity of thrombin (chromogenic substrate S-2238); assay type: biochemical; details: for Ki: human thrombin 0.5 nM, substrate S-2238, pH 7.8, room temperature; for q (ratio of the inhibition of trypsin to the inhibition of thrombin): specificity: Ki trypsin / Ki thrombin
Procedure: A differential inhibition of thrombin and other serine proteases by the above compounds is desirable in order to obtain compounds having as high a specificity as possible and at the same time to avoid possible side-effects.
Specific chromogenic peptide substrates can be used to determine the inhibition of the catalytic activity of the above proteases. The inhibition of the amidolytic activity of thrombin and trypsin by the above guanidines was determined as described hereinafter.
The measurements were carried out on microtitre plates at room temperature. For this, in each well of the plate 150 μl of buffer (50 mM Tris, 100 mM NaCl, 0.1% polyethylene glycol; pH 7.8) were mixed with 50 μl of the inhibitor dissolved in DMSO and diluted in the buffer, and 25 μl of human thrombin (0.5 nM final conc.) were added. After incubation for 10 minutes the reaction was started by the addition of chromogenic substrate S-2238 (H-D-Phe-Pip-Arg-paranitroaniline from Kabivitrum; 10 or 50 μm final conc.) and the hydrolysis of the substrate was followed spectrophotometrically on a kinetic microtiter plate reader for 5 minutes. After graphical presentation of the inhibition curves the Ki values were determined according to the method described in Blochem. J. 55, 1955, 170-171.

trypsin = assay: inhibition of the amidolytic activity of trypsin (chromogenic substrate S-2251); assay type: biochemical; details: substrate S-2251, 200 and 750 μM, otherwise analogous to thrombin

Structure (SMILES) | Ki (human thrombin) [µM] | q (ratio of the inhibition of trypsin to the inhibition of thrombin) (human thrombin) | Ki (trypsin) [µM]
CCCCCC(=O)N[C@@H](CC(=O)NC[C@@H]1CCCN(C(=N)N)C1)C(=O)N(CC(=O)O)C1CC1 [Example 14b, [[(S)-3-[(S)-1-(amino-imino-methyl)-piperidin-3-ylmethylcarbamoyl]-2-hexanoylamino-propionyl]-cyclopropyl-amino]-acetic acid] | 0.036 | 694 | 25
CCOC(=O)CCN(C(=O)[C@H](CC(=O)NC[C@@H]1CCCN(C(=N)N)C1)NC(=O)OCc1ccccc1)C1CC1 [Example 2a, Ethyl 3-[[(S)-3-[(S)-1-(amino-imino-methyl)-piperidin-3-ylmethylcarbamoyl]-2-benzyloxycarbonylamino-propionyl]-cyclopropylamino]-propionate] | 0.017 | 1706 | 29
CCCCC(=O)N[C@@H](CC(=O)NC[C@@H]1CCCN(C(=N)N)C1)C(=O)N(CC(=O)OCC)C1CC1 [Example 13a, Ethyl [[(S)-3-[(S)-1-(amino-imino-methyl)-piperidin-3-ylmethylcarbamoyl]-2-pentanoylamino-propionyl]-cyclopropyl-amino]acetate] | 2.7 | 26 | 70
CCCCN(CCC(=O)O)C(=O)[C@H](CC(=O)NC[C@@H]1CCCN(C(=N)N)C1)NC(=O)OCc1ccccc1 [Example 4c, 3-[[(S)-3-[(S)-1-(amino-imino-methyl)-piperidin-3-ylmethylcarbamoyl]-2-benzyloxycarbonylamino-propionyl]-butyl-amino]propionic acid] | 0.3 | 333 | 100
CC(C)(C)OC(=O)N[C@@H](CC(=O)NC[C@@H]1CCCN(C(=N)N)C1)C(=O)N(CCNC(=O)c1cnccn1)C1CC1 [Example 19, (S)-N4-[(S)-1-(amino-imino-methyl)-piperidin-3-yimethyl]-2-tert-butoxycarbonylamino-N1-cyclopropyl-N1-(2-pyrazin-2-ylcarbonylamino)-succinamide] | 0.0069 | 449 | 3.1
N=C(N)N1CCC[C@@H](CNC(=O)C[C@H](NC(=O)COc2ccccc2)C(=O)N(CCNC(=O)c2cnccn2)C2CC2)C1 [Example 21d, N4-[(S)-1-(amino-imino-methyl)-piperidin-3-ylmethyl]N1-cyclopropyl-2-phenoxyacetylamino-N1-(2-pyrazin-2-ylcarbonylamino-ethyl)-succinamide] | 0.0013 | 19231 | –
CCOC(=O)CCN(C(=O)[C@H](CC(=O)NCC1CN(C(=N)N)CCO1)NC(=O)OCc1ccccc1)C1CC1 (stereo partly drawn) [Example 5c, ethyl 3-[[(S)-3-[4-(amino-imino-methyl)-morpholin-2-ylmethylcarbamoyl]-2-benzyloxycarbonylamino-propionyl]-cyclopropyl-amino]-propionate] | 0.054 | 537 | 29
N=C(N)N1CCC[C@@H](CNC(=O)C[C@H](NS(=O)(=O)N2CCOCC2)C(=O)N(CCNC(=O)c2cnccn2)C2CC2)C1 [Example 24, (S)-N4-[(S)-1-(amino-imino-methyl)-piperidin-3-ylmethyl]-N1-cyclopropyl-2-morpholin-4-ylsulphonylamino-N1-(2-pyrazin-2-ylcarbonylamino-ethyl)-succinamide] | 0.0012 | 5917 | 7.1
CC(=O)N[C@@H](Cc1c[nH]c2ccccc12)C(=O)N[C@@H](CC(=O)NC[C@@H]1CCCN(C(=N)N)C1)C(=O)N(CCNC(=O)c1cnccn1)C1CC1 [Example 21c, (S)-2-[(S)-2-acetylamino-3-indol-3-yl-propionylamino]-N4-[(S)-1-(amino-imino-methyl)-piperidin-3-ylmethyl]-N1-cyclopropyl-N1-(2-pyrazin-2-ylcarbonylamino-ethyl)-succinamide] | 0.0061 | 2459 | 15
CCCCN(CCC(=O)O)C(=O)[C@H](CC(=O)NCC1CN(C(=N)N)CCO1)NC(=O)OCc1ccccc1 (stereo partly drawn) [Example 6d, 3-[[(S)-3-[4-(amino-imino-methyl)-morpholin-2-ylmethylcarbamoyl]-2-benzyloxycarbonylamino-propionyl]-butyl-amino]propionic acid] | 0.94 | 90 | 85
N=C(N)N1CCC[C@@H](CNC(=O)C[C@H](NC(=O)OCC2CCCCC2)C(=O)N(CC(=O)O)C2CC2)C1 [Example 8, [[(S)-3-[(S)-1-(Amino-imino-methyl)-piperidin-3-ylmethylcarbamoyl]-2-cyclohexylmethoxycarbonylamino-propionyl]cyclopropyl-amino]-acetic acid] | 0.017 | 1588 | 27
N=C(N)N1CCC[C@@H](CNC(=O)C[C@H](NS(=O)(=O)N2CCOCC2)C(=O)N(CCNC(=O)c2ccc(=O)[nH]n2)C2CC2)C1 [Example 25] | 0.0013 | 5538 | 7.2
CCCCN(CCC(=O)OCC)C(=O)[C@H](CC(=O)NCC1CN(C(=N)N)CCO1)NC(=O)OCc1ccccc1 (stereo partly drawn) [Example 5d, ethyl 3-[[(S)-3-[4-(amino-imino-methyl)-morpholin-2-ylmethylcarbamoyl]-2-benzyloxycarbonylaminopropionyl]-butyl-amino]-propionate] | 0.13 | 92 | 12
N=C(N)N1CCOC(CNC(=O)C[C@H](NC(=O)OCc2ccccc2)C(=O)N(CC(=O)O)C2CC2)C1 (stereo partly drawn) [Example 6a] | 0.45 | 311 | –

Continued by falling Ki (human thrombin), values first:

Ki (human thrombin) [µM] | q (ratio of the inhibition of trypsin to the inhibition of thrombin) (human thrombin) | Ki (trypsin) [µM] | Structure (SMILES)
1.2 | 58 | 70 | CCOC(=O)CN(C(=O)[C@H](CC(=O)NC[C@@H]1CCCN(C(=N)N)C1)NC(=O)OCc1ccccc1)C1CC1 [Example 1, ethyl [[(S)-3-[(S)-1-(amino-imino-methyl)-piperidin-3-ylmethylcarbamoyl]-2-benzyloxycarbonylamino-propionyl]-cyclopropyl-amino]-acetate]
0.61 | 92 | 56 | CCCCN(CC(=O)OCC)C(=O)[C@H](CC(=O)NC[C@@H]1CCCN(C(=N)N)C1)NC(=O)OCc1ccccc1 [Example 2b, ethyl [[(S)-3-[(S)-1-(amino-imino-methyl)-piperidin-3-ylmethylcarbamoyl]-2-benzyloxycarbonylamino-propionyl]-butyl-amino]acetate]
0.25 | 204 | 51 | CCCCN(CCC(=O)OCC)C(=O)[C@H](CC(=O)NC[C@@H]1CCCN(C(=N)N)C1)NC(=O)NCc1ccco1 [Example 10, Ethyl 3-[[(S)-3-[(S)-1-(amino-imino-methyl)-piperidin-3-ylmethylcarbamoyl]-2-(3-furan-2-ylmethyl-ureido)-propionyl]-butylamino]-propionate]
0.25 | 332 | 83 | N=C(N)N1CCC[C@@H](CNC(=O)C[C@H](NC(=O)c2ccccc2)C(=O)N(CC(=O)O)C2CC2)C1 [Example 14d, [[(S)-3-[(S)-1-(amino-imino-methyl)-piperidin-3-ylmethylcarbarnoyl]-2-benzoylamino-propionyl]-cyclopropyl-amino]-acetic acid]
0.077 | 390 | 30 | CCCCN(CCC(=O)OCC)C(=O)[C@H](CC(=O)NC[C@@H]1CCCN(C(=N)N)C1)NC(=O)OCc1ccccc1 [Example 2c, ethyl 3-[[(S)-3-[(S)-1-(amino-imino-methyl)-piperidin-3-ylmethylcarbamoyl]-2-benzyloxycarbonylamino-propionyl]-butylamino]-propionate]
0.064 | 438 | 28 | CCCCN(CC(=O)O)C(=O)[C@H](CC(=O)NC[C@@H]1CCCN(C(=N)N)C1)NC(=O)OCc1ccccc1 [Example 4b, [[(S)-3-[(S)-1-(amino-imino-methyl)-piperidin-3-ylmethylcarbamoyl]-2-benzyloxycarbonylamino-propionyl]-butyl-amino]-acetic acid]
0.0018 | 7222 | 13 | N=C(N)N1CCC[C@@H](CNC(=O)C[C@H]2C(=O)N(C3CC3)CC(=O)N2S(=O)(=O)c2ccc3ccccc3c2)C1 [Example 15, N-[(S)-1-(amino-imino-methyl)-piperidin-3-ylmethyl]-2-[(S)-4-cyclopropyl-1-naphthalen-2-ylsulphonyl-3,6-dioxo-piperazin-2-yl]-acetamide]
0.00086 | 5233 | – | N=C(N)N1CCC[C@@H](CNC(=O)C[C@H](NC(=O)CSc2ncccn2)C(=O)N(CCNC(=O)c2cnccn2)C2CC2)C1 [Example 20, (S)-N4-[(S)-1-(amino-imino-methyl)-piperidin-3-ylmethyl]-N1-cyclopropyl-N1-(2-pyrazin-2-ylcarbonylamino-ethyl)-2-pyrimidin-2-ylsulphanylacetylamino-succinamide]
